Test results: US5026910A, “Polyfluoroalkyl nitrogen compounds, processes for their preparation and their use” (Societe Atochem, priority 1989, dated 1991)

Assays:
[1] = surface tension of aqueous solution (0.1%); type: physicochemical; details: for surface tension: aqueous solution containing 0.1%; for γs (surface tension): aqueous solution at a concentration of 0.1%
Experimental: (§1) The surface tension of an aqueous solution containing 0.1% of this salt is 19.2 mN m^-1 at 25° C. The interfacial tension of an aqueous solution containing 0.1% of this salt, in equilibrium with cyclohexane, is 5.8 mN m^-1 at 25° C.
(§2) The surface tension of an aqueous solution containing 0.1% of this salt is 15.5 mN m^-1 at 25° C. The interfacial tension of an aqueous solution containing 0.1% of this salt, in equilibrium with cyclohexane, is 6.4 mN m.-1 at 25° C.
This yields the corresponding quaternary salts of formula: [drawing 19] which are colorless or slightly orange-colored pastes. These salts are completely water-soluble. Their yield and the surface tension at 25° C. of an aqueous solution at a concentration of 0.1% are shown in the second and third columns of Table 5.
(§3) The surface tension Ys and interfacial tension Yi (relative to cyclohexane)of the ammonium salt in question, which are measured at 25° C. in aqueous solution at a concentration of 0.1%, are shown in the fourth and fifth columns of Table 6, the third column showing the yield.
(§4) The surface tension of an aqueous solution containing 0.1% of this salt is 15.5 mN m^-1 at 25° C. The interfacial tension in relation to cyclohexane in the same conditions is 5.5 mN m^-1 .
(§5) By proceeding in the same manner starting with 1,3-dibromopropane, the double quaternary salt of formula: [drawing 24] is obtained in a 98% yield. The surface tension of an aqueous solution containing 0.1% of this salt is 16.4 mN m^-1 at 25° C. The interfacial tension relative to cyclohexane in the same conditions is 7.7 mN m^1.
The surface tension of an aqueous solution containing 0.1% of this N-oxide at 25° C. is 16.3 mN m^-1
The surface tension of an aqueous solution containing 1 0.1% of this betaine is 16.2 mN m^-1.

[2] = interfacial tension of aqueous solution (0.1%) relative to cyclohexane; type: physicochemical; details: 25° C.; for γi (interfacial tension relative to cyclohexane): Table 6, aqueous solution at a concentration of 0.1%
Experimental: as §1, §2, §3, §4, §5

[3] = aqueous solution containing 0.1%, cyclohexane

Row | Compound | γs (surface tension) ([1]; Table 6, 25° C.) [mN m^-1] | γi (interfacial tension relative to cyclohexane) ([2]; cyclohexane) [mN m^-1] | other results
1 | C[N+](C)(C)CCNC(=S)NCCC(F)(F)C(F)(F)C(F)(F)C(F)(F)C(F)(F)C(F)(F)F | – | – | surface tension ([1]; 25° C.): 19.2 mN m^-1; interfacial tension in equilibrium with / relative to cyclohexane [2, 3]: 5.8 mN m^-1
2 | C[N+](C)(C)CCNC(=S)NCCC(F)(F)C(F)(F)C(F)(F)C(F)(F)C(F)(F)C(F)(F)C(F)(F)C(F)(F)F | – | – | surface tension ([1]; 25° C.): 15.5 mN m^-1; interfacial tension in equilibrium with cyclohexane [2, 3]: 6.4 mN m.-1
3 | C[N+](C)(CCNC(=S)NCCC(F)(F)C(F)(F)C(F)(F)C(F)(F)C(F)(F)C(F)(F)F)Cc1ccccc1 | – | – | γs (surface tension) ([1]; Table 5, 25° C.): 17.4 mN m^-1
4 | C[N+](C)(CCNC(=S)NCCC(F)(F)C(F)(F)C(F)(F)C(F)(F)C(F)(F)C(F)(F)F)CC[N+](C)(C)CCNC(=S)NCCC(F)(F)C(F)(F)C(F)(F)C(F)(F)C(F)(F)C(F)(F)F | – | – | surface tension ([1]; 25° C.): 15.5 mN m^-1; interfacial tension in equilibrium with / relative to cyclohexane [2, 3]: 5.5 mN m^-1
5 | C[N+](C)(CCC[N+](C)(C)CCNC(=S)NCCC(F)(F)C(F)(F)C(F)(F)C(F)(F)C(F)(F)C(F)(F)F)CCNC(=S)NCCC(F)(F)C(F)(F)C(F)(F)C(F)(F)C(F)(F)C(F)(F)F | – | – | surface tension ([1]; 25° C.): 16.4 mN m^-1; interfacial tension relative to cyclohexane ([2]; in the same conditions: aqueous solution containing 0.1%): 7.7 mN m^1
6 | C[N+](C)([O-])CCNC(=S)NCCC(F)(F)C(F)(F)C(F)(F)C(F)(F)C(F)(F)C(F)(F)F | – | – | surface tension ([1]; 25° C.): 16.3 mN m^-1
7 | C[N+](C)(CCNC(=S)NCCC(F)(F)C(F)(F)C(F)(F)C(F)(F)C(F)(F)C(F)(F)F)CC(=O)[O-] | – | – | surface tension ([1]; temperature not given): 16.2 mN m^-1
8 | CCCCCCCC[N+](C)(C)CCNC(=S)NCCC(F)(F)C(F)(F)C(F)(F)C(F)(F)F [C4 F9 / C8 H17] | 19.7 | 0.7 | –
9 | CCCCCCCCCCCC[N+](C)(C)CCNC(=S)NCCC(F)(F)C(F)(F)C(F)(F)C(F)(F)F [C4 F9 / C12 H25] | 23.1 | 1.9 | –
10 | CCCCCCCCCCCCCCCC[N+](C)(C)CCNC(=S)NCCC(F)(F)C(F)(F)C(F)(F)C(F)(F)F [C4 F9 / C16 H33] | 26.8 | 2.1 | –
11 | CCCCCCCC[N+](C)(C)CCNC(=S)NCCC(F)(F)C(F)(F)C(F)(F)C(F)(F)C(F)(F)C(F)(F)F [C6 F13 / C8 H17] | 15.9 | 1.4 | –
12 | CCCCCCCCCCCC[N+](C)(C)CCNC(=S)NCCC(F)(F)C(F)(F)C(F)(F)C(F)(F)C(F)(F)C(F)(F)F [C6 F13 / C12 H25] | 17.5 | 0.8 | –
13 | CCCCCCCCCCCCCCCC[N+](C)(C)CCNC(=S)NCCC(F)(F)C(F)(F)C(F)(F)C(F)(F)C(F)(F)C(F)(F)F [C6 F13 / C16 H33] | 20.3 | 0.7 | –
14 | CCCCC[N+](C)(C)CCNC(=S)NCCC(F)(F)C(F)(F)C(F)(F)C(F)(F)C(F)(F)C(F)(F)C(F)(F)C(F)(F)F [C8 F17 / C5 H11] | 16 | 2 | –
15 | CCCCCCCC[N+](C)(C)CCNC(=S)NCCC(F)(F)C(F)(F)C(F)(F)C(F)(F)C(F)(F)C(F)(F)C(F)(F)C(F)(F)F [C8 F17 / C8 H17] | 15.9 | 3.2 | –
16 | CCCCCCCCCCCC[N+](C)(C)CCNC(=S)NCCC(F)(F)C(F)(F)C(F)(F)C(F)(F)C(F)(F)C(F)(F)C(F)(F)C(F)(F)F [C8 F17 / C12 H25] | 15.2 | 2.2 | –
17 | C=CC[N+](C)(C)CCNC(=S)NCCC(F)(F)C(F)(F)C(F)(F)C(F)(F)C(F)(F)C(F)(F)F [CH2CHCH2Br] | – | – | γs (surface tension) ([1]; Table 5, 25° C.): 16.4 mN m^-1
18 | C[N+](C)(CCO)CCNC(=S)NCCC(F)(F)C(F)(F)C(F)(F)C(F)(F)C(F)(F)C(F)(F)F [HOC2 H4Br] | – | – | γs (surface tension) ([1]; Table 5, 25° C.): 15.4 mN m^-1
